Laboratory results as given in patent publication US20230331673A1, “COMPOSITION OF COMPOUNDS THAT MODULATE CELL METABOLISM AND METHODS OF USE” (CRESCENTA BIOSCIENCES, priority 2020, published 2023).

What follows are molecules tested on differentiated 3T3-L1 mouse adipocyte cells (assay: Adipocyte glucose consumption in differentiated 3T3-L1 mouse adipocyte cells (loss of glucose from medium, colorimetric)). Settings: compound 10 μM, 22 to 24 hours, differentiated 3T3-L1 adipocytes, compound/DMSO, read-out: Glucose consumption (fold change) Mean.
Type: cell-based
Description: Activity of compounds on adipocyte glucose consumption was tested in differentiated 3T3-L1 mouse adipocyte cells. 3T3-L1 preadipocytes (ATCC) were routinely cultured in a growth medium composed of DMEM high-glucose (Sigma), 10% FBS (Gibco), 10 U/ml penicillin and 10 μg/ml streptomycin (P/S; Gibco). To induce adipogenic differentiation, a confluent layer of 3T3-L1 cells were incubated with the growth medium containing 2 μM rosiglitazone, 1 μM dexamethasone, 500 μM IBMX, and 1 μg/ml insulin (Sigma). Forty-eight (48) hours later (on day 2) and on days 4 and 6, medium of the cells was replaced with fresh medium containing 1 μg/ml insulin. On days 8 and 10, the medium was refreshed with regular growth medium and addition of insulin was omitted. On day 11 or 12, medium of the cells were replaced with fresh medium containing either the indicated compounds (10 μM) or the vehicle in which the compounds were dissolved (DMSO). The final concentration of DMSO was 0.1% (v/v). Growth medium containing 0.1% DMSO was incubated in culture wells containing no cells and used as control. Twenty-two to 24 hours later, medium was harvested and subjected to centrifugation at 10,000 g for 5 min. Glucose concentration in the supernatants was determined using a colorimetric assay (Glucose Assay Kit I, Eton Biosciences). Glucose consumption in compound and vehicle treated cells was measured as loss of glucose from the culture medium and represented as mean fold change (compound/DMSO) t standard deviation (SD).
Work on `CCCCCCC1CCCc2c(n(Cc3cccc(C#N)c3F)c3c(C(=O)O)cccc23)C1` (stereo not drawn) [5-[(3-cyano-2-fluorophenyl)methyl]-7-hexyl-5H,6H,7H,8H,9H,10H-cyclohepta[b]indole-4-carboxylic acid] yielded a fold induction at 10 µM of 1.36. `CCCCCCC1CCCc2c(n(Cc3cccc(C#N)c3)c3c(C(=O)O)cc(F)cc23)C1` (stereo not drawn) [5-[(3-cyanophenyl)methyl]-2-fluoro-7-hexyl-5H,6H,7H,8H,9H,10H-cyclohepta[b]indole-4-carboxylic acid] was tested, and the fold induction at 10 µM was 1.33. With `N#Cc1cccc(Cn2c3c(c4cccc(C(=O)O)c42)CCCC(CCc2ccccc2)C3)c1` (stereo not drawn) [5-[(3-cyanophenyl)methyl]-7-(2-phenylethyl)-5H,6H,7H,8H,9H,10H-cyclohepta[b]indole-4-carboxylic acid] the fold induction at 10 µM was 1.02. `CCC1CCCc2c(n(Cc3cccc(C#N)c3)c3c(C(=O)O)cccc23)C1` (stereo not drawn) [5-[(3-cyanophenyl)methyl]-7-ethyl-5H,6H,7H,8H,9H,10H-cyclohepta[b]indole-4-carboxylic acid] was tested, and the fold induction at 10 µM was 1.16. Molecule `CCCCCCC1CCCc2c(n(Cc3cccc(C#N)c3)c3c(C(=O)O)cccc23)C1` (stereo not drawn) [5-[(3-cyanophenyl)methyl]-7-hexyl-5H,6H,7H,8H,9H,10H-cyclohepta[b]indole-4-carboxylic acid] has a fold induction at 10 µM of 1.26. In the case of `CCCCCCCCC1CCCc2c(n(Cc3cccc(C#N)c3)c3c(C(=O)O)cccc23)C1` (stereo not drawn) [5-[(3-cyanophenyl)methyl]-7-octyl-5H,6H,7H,8H,9H,10H-cyclohepta[b]indole-4-carboxylic acid], the fold induction at 10 µM is reported as 1.12. `CCCCCC1CCCc2c(n(Cc3cccc(C#N)c3)c3c(C(=O)O)cccc23)C1` (stereo not drawn) [5-[(3-cyanophenyl)methyl]-7-pentyl-5H,6H,7H,8H,9H,10H-cyclohepta[b]indole-4-carboxylic acid] gave a fold induction at 10 µM of 1.35. `CCC1CCCCc2c1c1cccc(C(=O)O)c1n2Cc1cccc(C#N)c1` (stereo not drawn) [5-[(3-cyanophenyl)methyl]-10-ethyl-5H,6H,7H,8H,9H,10H-cyclohepta[b]indole-4-carboxylic acid] gave a fold induction at 10 µM of 1.15. `CCCCCC1CCCCc2c1c1cccc(C(=O)O)c1n2Cc1cccc(C#N)c1` (stereo not drawn) [5-[(3-cyanophenyl)methyl]-10-pentyl-5H,6H,7H,8H,9H,10H-cyclohepta[b]indole-4-carboxylic acid] showed a fold induction at 10 µM of 1.2. Molecule `CCCC1CCCCc2c1c1cccc(C(=O)O)c1n2Cc1cccc(C#N)c1` (stereo not drawn) [5-[(3-cyanophenyl)methyl]-10-propyl-5H,6H,7H,8H,9H,10H-cyclohepta[b]indole-4-carboxylic acid] has a fold induction at 10 µM of 1.18. `CCCCCCC1CCCc2c(n(Cc3cccc(F)c3)c3c(C(=O)O)cccc23)C1` (stereo not drawn) [5-[(3-fluorophenyl)methyl]-7-hexyl-5H,6H,7H,8H,9H,10H-cyclohepta[b]indole-4-carboxylic acid] showed a fold induction at 10 µM of 1.14. With `CCCCCCC1CCCc2c(n(Cc3ccc(C(N)=O)cc3)c3c(C(=O)O)cccc23)C1` (stereo not drawn) [5-[(4-carbamoylphenyl)methyl]-7-hexyl-5H,6H,7H,8H,9H,10H-cyclohepta[b]indole-4-carboxylic acid] the fold induction at 10 µM was 1.05. `CCCCCCC1CCCc2c(n(Cc3ccc(C#N)cc3)c3c(C(=O)O)cccc23)C1` (stereo not drawn) [5-[(4-cyanophenyl)methyl]-7-hexyl-5H,6H,7H,8H,9H,10H-cyclohepta[b]indole-4-carboxylic acid] gave a fold induction at 10 µM of 0.94. `CCCCCCC1CCCc2c(n(Cc3ccc(F)cc3)c3c(C(=O)O)cccc23)C1` (stereo not drawn) [5-[(4-fluorophenyl)methyl]-7-hexyl-5H,6H,7H,8H,9H,10H-cyclohepta[b]indole-4-carboxylic acid] gave a fold induction at 10 µM of 1.17. Work on `CCCCCCC1CCCc2c(n(Cc3ccc(C#N)o3)c3c(C(=O)O)cccc23)C1` (stereo not drawn) [5-[(5-cyanofuran-2-yl)methyl]-7-hexyl-5H,6H,7H,8H,9H,10H-cyclohepta[b]indole-4-carboxylic acid] yielded a fold induction at 10 µM of 1.29. `CCCCCCC1CCCc2c(n(Cc3cncc(C#N)c3)c3c(C(=O)O)cccc23)C1` (stereo not drawn) [5-[(5-cyanopyridin-3-yl)methyl]-7-hexyl-5H,6H,7H,8H,9H,10H-cyclohepta[b]indole-4-carboxylic acid] showed a fold induction at 10 µM of 1.06. With `CCCCCCC1CCCc2c(n(Cc3ccc(C#N)s3)c3c(C(=O)O)cccc23)C1` (stereo not drawn) [5-[(5-cyanothiophen-2-yl)methyl]-7-hexyl-5H,6H,7H,8H,9H,10H-cyclohepta[b]indole-4-carboxylic acid] the fold induction at 10 µM was 1.05. For `CCCCCCC1CCCc2c(n(Cc3csc(C#N)c3)c3c(C(=O)O)cccc23)C1` (stereo not drawn) [5-[(5-cyanothiophen-3-yl)methyl]-7-hexyl-5H,6H,7H,8H,9H,10H-cyclohepta[b]indole-4-carboxylic acid], the fold induction at 10 µM was 1.2. `CCCCCCC1CCCc2c(n(Cc3cccc(C(N)=O)n3)c3c(C(=O)O)cccc23)C1` (stereo not drawn) [5-[(6-carbamoylpyridin-2-yl)methyl]-7-hexyl-5H,6H,7H,8H,9H,10H-cyclohepta[b]indole-4-carboxylic acid] gave a fold induction at 10 µM of 1.23. Molecule `CCCCCCC1CCCc2c(n(Cc3cccc(C#N)n3)c3c(C(=O)O)cccc23)C1` (stereo not drawn) [5-[(6-cyanopyridin-2-yl)methyl]-7-hexyl-5H,6H,7H,8H,9H,10H-cyclohepta[b]indole-4-carboxylic acid] has a fold induction at 10 µM of 1.28. In the case of `CCCCCCC1CCCc2c(n(Cc3cccc(F)n3)c3c(C(=O)O)cccc23)C1` (stereo not drawn) [5-[(6-fluoropyridin-2-yl)methyl]-7-hexyl-5H,6H,7H,8H,9H,10H-cyclohepta[b]indole-4-carboxylic acid], the fold induction at 10 µM is reported as 1.25. For `CCCCCCC1CCCc2c(n(Cc3cccc(C(=O)O)n3)c3c(C(=O)O)cccc23)C1` (stereo not drawn) [6-({4-carboxy-7-hexyl-5H,6H,7H,8H,9H,10H-cyclohepta[b]indol-5-yl}methyl)pyridine-2-carboxylic acid], the fold induction at 10 µM was 0.96. `CCCCC1CCCCc2c1n(Cc1cccc(C(N)=O)c1)c1c(C(=O)O)cccc21` (stereo not drawn) [6-butyl-5-[(3-carbamoylphenyl)methyl]-5H,6H,7H,8H,9H,10H-cyclohepta[b]indole-4-carboxylic acid] showed a fold induction at 10 µM of 1.03. Molecule `CCCCC1CCCCc2c1n(Cc1cccc(C#N)c1)c1c(C(=O)O)cccc21` (stereo not drawn) [6-butyl-5-[(3-cyanophenyl)methyl]-5H,6H,7H,8H,9H,10H-cyclohepta[b]indole-4-carboxylic acid] has a fold induction at 10 µM of 1.16. `CCCCC1CCCc2c(n(Cc3ccccc3C(N)=O)c3c(C(=O)O)cccc23)C1` (stereo not drawn) [7-butyl-5-[(2-carbamoylphenyl)methyl]-5H,6H,7H,8H,9H,10H-cyclohepta[b]indole-4-carboxylic acid] showed a fold induction at 10 µM of 1.11. `CCCCC1CCCc2c(n(Cc3ccccc3C#N)c3c(C(=O)O)cccc23)C1` (stereo not drawn) [7-butyl-5-[(2-cyanophenyl)methyl]-5H,6H,7H,8H,9H,10H-cyclohepta[b]indole-4-carboxylic acid] was tested, and the fold induction at 10 µM was 1.1. `CCCCC1CCCc2c(n(Cc3ccccc3F)c3c(C(=O)O)cccc23)C1` (stereo not drawn) [7-butyl-5-[(2-fluorophenyl)methyl]-5H,6H,7H,8H,9H,10H-cyclohepta[b]indole-4-carboxylic acid] was tested, and the fold induction at 10 µM was 1.11. `CCCCC1CCCc2c(n(Cc3ccccc3C)c3c(C(=O)O)cccc23)C1` (stereo not drawn) [7-butyl-5-[(2-methylphenyl)methyl]-5H,6H,7H,8H,9H,10H-cyclohepta[b]indole-4-carboxylic acid] showed a fold induction at 10 µM of 1.12. `CCCCC1CCCc2c(n(Cc3cccc(C(N)=O)c3)c3c(C(=O)O)cccc23)C1` (stereo not drawn) [7-butyl-5-[(3-carbamoylphenyl)methyl]-5H,6H,7H,8H,9H,10H-cyclohepta[b]indole-4-carboxylic acid] gave a fold induction at 10 µM of 1.12. `CCCCC1CCCc2c(n(Cc3cccc(C(N)=O)c3)c3c(C(=O)NCCO)cccc23)C1` (stereo not drawn) [7-butyl-5-[(3-carbamoylphenyl)methyl]-N-(2-hydroxyethyl)-5H,6H,7H,8H,9H,10H-cyclohepta[b]indole-4-carboxamide] gave a fold induction at 10 µM of 0.98. `CCCCC1CCCc2c(n(Cc3cccc(C(=O)O)c3)c3c(C(=O)O)cccc23)C1` (stereo not drawn) [7-butyl-5-[(3-carboxyphenyl)methyl]-5H,6H,7H,8H,9H,10H-cyclohepta[b]indole-4-carboxylic acid] gave a fold induction at 10 µM of 0.95. In the case of `CCCCC1CCCc2c(n(Cc3cccc(Cl)c3)c3c(C(=O)O)cccc23)C1` (stereo not drawn) [7-butyl-5-[(3-chlorophenyl)methyl]-5H,6H,7H,8H,9H,10H-cyclohepta[b]indole-4-carboxylic acid], the fold induction at 10 µM is reported as 1.18. In the case of `CCCCC1CCCc2c(n(Cc3cccc(C#N)c3)c3c(C(=O)O)cccc23)C1` (stereo not drawn) [7-butyl-5-[(3-cyanophenyl)methyl]-5H,6H,7H,8H,9H,10H-cyclohepta[b]indole-4-carboxylic acid], the fold induction at 10 µM is reported as 1.29. For `CCCCC1CCCc2c(n(Cc3cccc(C#N)c3)c3c(C(=O)NCCO)cccc23)C1` (stereo not drawn) [7-butyl-5-[(3-cyanophenyl)methyl]-N-(2-hydroxyethyl)-5H,6H,7H,8H,9H,10H-cyclohepta[b]indole-4-carboxamide], the fold induction at 10 µM was 1.08. `CCCCC1CCCc2c(n(Cc3cccc(F)c3)c3c(C(=O)O)cccc23)C1` (stereo not drawn) [7-butyl-5-[(3-fluorophenyl)methyl]-5H,6H,7H,8H,9H,10H-cyclohepta[b]indole-4-carboxylic acid] showed a fold induction at 10 µM of 1.12. In the case of `CCCCC1CCCc2c(n(Cc3cccc(O)c3)c3c(C(=O)O)cccc23)C1` (stereo not drawn) [7-butyl-5-[(3-hydroxyphenyl)methyl]-5H,6H,7H,8H,9H,10H-cyclohepta[b]indole-4-carboxylic acid], the fold induction at 10 µM is reported as 1.14.
